Measurements reported in ChEMBL document CHEMBL4184281, “Pharmacology and in vivo efficacy of pyridine-pyrimidine amides that inhibit microtubule polymerization” (Bioorg Med Chem Lett, 2018).
Calls of active or inactive are those of the source. The calls are words filed in the database; no cut-off is given here.

What was measured:
SNU-16 = test: Antitumor activity against human SNU16 cells xenografted in nude BALB/c mouse assessed as tumor growth inhibition relative to control; type: functional
[1] = Tmax in CD-1 mouse administered as single po dose by mass spectrometry; type: ADME, organism-based; conditions: in vivo
[2] = Toxicity in mouse; type: organism-based; conditions: in vivo
[3] = Half life in dog liver microsomes; type: ADME, Canis lupus familiaris, microsome
[4] = Unbound fraction in plasma (unknown origin); type: ADME, cell-free
Cytochrome P450 2D6 = Cytochrome P450 2D6 (Homo sapiens, UniProt P10635); test: Inhibition of CYP2D6 (unknown origin); type: ADME
[5] = Half life in human liver microsomes; type: ADME, microsome
[6] = Stability in human plasma assessed as parent compound remaining after 75 mins relative to initial time; type: ADME, cell-free; conditions: read-out: Stability
[7] = Protein binding in plasma (unknown origin); type: ADME, cell-free; conditions: read-out: PPB (converted)
[8] = Stability in human plasma assessed as parent compound remaining after 4 hrs relative to initial time; type: ADME, cell-free; conditions: read-out: Stability
[9] = Half life in mouse liver microsomes; type: ADME, microsome
Cytochrome P450 2C9 = Cytochrome P450 2C9 (Homo sapiens, UniProt P11712); test: Inhibition of CYP2C9 (unknown origin); type: ADME
[10] = Drug recovery in plasma (unknown origin); type: ADME, cell-free
Cytochrome P450 3A4 = Cytochrome P450 3A4 (Homo sapiens, UniProt P08684); test: Inhibition of CYP3A4 (unknown origin); type: ADME
[11] = Toxicity in mouse administered as single po dose; type: organism-based; conditions: in vivo
[12] = Stability in human plasma assessed as parent compound remaining after 24 hrs relative to initial time; type: ADME, cell-free; conditions: read-out: Stability
Cytochrome P450 1A2 = target: T1, Cytochrome P450 1A2 (Homo sapiens, UniProt P05177); test: Inhibition of CYP1A2 (unknown origin); type: ADME
T1 sequence (P05177 whole entry): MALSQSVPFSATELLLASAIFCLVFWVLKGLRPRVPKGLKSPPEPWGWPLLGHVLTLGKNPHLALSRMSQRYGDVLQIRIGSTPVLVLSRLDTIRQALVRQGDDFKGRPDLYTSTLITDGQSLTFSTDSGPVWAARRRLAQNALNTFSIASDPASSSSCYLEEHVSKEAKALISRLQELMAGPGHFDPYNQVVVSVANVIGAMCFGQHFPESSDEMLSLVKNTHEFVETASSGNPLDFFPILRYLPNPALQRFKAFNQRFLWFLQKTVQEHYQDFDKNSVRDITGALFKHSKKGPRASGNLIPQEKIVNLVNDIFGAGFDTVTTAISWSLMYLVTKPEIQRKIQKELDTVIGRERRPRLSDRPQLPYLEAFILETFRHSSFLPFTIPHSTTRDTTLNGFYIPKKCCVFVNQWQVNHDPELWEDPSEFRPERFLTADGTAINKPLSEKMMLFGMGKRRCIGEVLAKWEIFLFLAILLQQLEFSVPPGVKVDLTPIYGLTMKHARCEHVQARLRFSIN

[13] = Stability in human plasma assessed as parent compound remaining after 2 hrs relative to initial time; type: ADME, cell-free; conditions: read-out: Stability
Cytochrome P450 2C19 = Cytochrome P450 2C19 (Homo sapiens, UniProt P33261); test: Inhibition of CYP2C19 (unknown origin); type: ADME
[14] = Half life in rat liver microsomes; type: ADME, microsome
A2780 = test: Antitumor activity against human A2780 cells xenografted in nude BALB/c mouse assessed as tumor growth inhibition at 20 mg/kg, po qd measured up to 12 days post dose; type: functional, organism-based
Mus musculus = test: Toxicity in nude BALB/c mouse xenografted with human A2780 cells assessed as change in body weight at 20 mg/kg, po qd measured up to 12 days post dose; type: organism-based; conditions: in vivo, 288 h
[15] = Stability in human plasma assessed as parent compound remaining after 8 hrs relative to initial time; type: ADME, cell-free; conditions: read-out: Stability
[16] = Tmax in rat administered as single po dose by mass spectrometry; type: ADME, organism-based; conditions: in vivo
in vitro [17] = conditions: human, Caco-2
Description: Apparent intrinsic permeability in human Caco2 cells from apical to basolateral side after 120 mins by mass spectrometry

in vitro [18] = conditions: human, Caco-2; remark: listed apart in the source
Description: Apparent intrinsic permeability in human Caco2 cells from basolateral to apical side after 120 mins by mass spectrometry

[19] = Efflux ratio of apparent intrinsic permeability in human Caco2 cells after 120 mins by mass spectrometry; type: ADME, cell-based; conditions: Caco-2

Sequence of Cytochrome P450 2C9 (P11712 whole entry): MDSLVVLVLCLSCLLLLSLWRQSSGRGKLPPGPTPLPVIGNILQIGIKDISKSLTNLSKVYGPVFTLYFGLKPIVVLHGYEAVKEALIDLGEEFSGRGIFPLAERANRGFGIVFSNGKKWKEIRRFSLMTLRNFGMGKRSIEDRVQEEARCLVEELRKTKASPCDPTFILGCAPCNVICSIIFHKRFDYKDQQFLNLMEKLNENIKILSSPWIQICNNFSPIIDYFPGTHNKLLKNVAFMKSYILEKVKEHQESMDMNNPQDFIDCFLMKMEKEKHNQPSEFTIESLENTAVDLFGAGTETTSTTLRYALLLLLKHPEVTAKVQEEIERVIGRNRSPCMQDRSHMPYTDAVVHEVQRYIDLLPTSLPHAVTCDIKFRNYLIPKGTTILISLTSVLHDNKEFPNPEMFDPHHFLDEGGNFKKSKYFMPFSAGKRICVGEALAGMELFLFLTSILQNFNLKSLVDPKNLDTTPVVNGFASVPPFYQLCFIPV
Sequence of Cytochrome P450 2D6 (P10635 whole entry): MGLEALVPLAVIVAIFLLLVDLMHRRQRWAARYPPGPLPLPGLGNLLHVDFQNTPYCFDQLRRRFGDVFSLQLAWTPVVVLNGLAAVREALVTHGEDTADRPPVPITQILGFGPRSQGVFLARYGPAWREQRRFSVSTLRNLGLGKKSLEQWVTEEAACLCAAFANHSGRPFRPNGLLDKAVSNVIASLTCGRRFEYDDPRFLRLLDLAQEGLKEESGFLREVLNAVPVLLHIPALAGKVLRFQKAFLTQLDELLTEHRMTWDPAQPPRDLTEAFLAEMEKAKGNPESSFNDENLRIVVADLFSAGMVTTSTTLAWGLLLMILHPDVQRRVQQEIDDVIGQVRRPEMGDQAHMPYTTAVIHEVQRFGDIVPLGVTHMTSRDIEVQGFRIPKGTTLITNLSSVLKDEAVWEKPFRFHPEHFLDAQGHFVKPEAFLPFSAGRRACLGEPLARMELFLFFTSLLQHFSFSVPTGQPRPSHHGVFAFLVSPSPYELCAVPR
Sequence of Cytochrome P450 2C19 (P33261 whole entry): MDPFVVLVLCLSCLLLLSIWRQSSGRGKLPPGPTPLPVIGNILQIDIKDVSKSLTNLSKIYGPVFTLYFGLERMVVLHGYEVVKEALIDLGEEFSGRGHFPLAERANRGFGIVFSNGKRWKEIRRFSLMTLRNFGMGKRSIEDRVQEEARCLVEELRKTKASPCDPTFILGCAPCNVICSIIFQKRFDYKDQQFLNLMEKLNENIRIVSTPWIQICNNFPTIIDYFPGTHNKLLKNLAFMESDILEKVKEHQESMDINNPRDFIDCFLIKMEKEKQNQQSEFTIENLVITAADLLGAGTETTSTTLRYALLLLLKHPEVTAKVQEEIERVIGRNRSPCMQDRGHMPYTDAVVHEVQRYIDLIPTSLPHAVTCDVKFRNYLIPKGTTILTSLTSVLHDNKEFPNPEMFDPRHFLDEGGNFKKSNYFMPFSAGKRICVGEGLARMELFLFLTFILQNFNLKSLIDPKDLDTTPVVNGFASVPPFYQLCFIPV
Sequence of Cytochrome P450 3A4 (P08684 whole entry): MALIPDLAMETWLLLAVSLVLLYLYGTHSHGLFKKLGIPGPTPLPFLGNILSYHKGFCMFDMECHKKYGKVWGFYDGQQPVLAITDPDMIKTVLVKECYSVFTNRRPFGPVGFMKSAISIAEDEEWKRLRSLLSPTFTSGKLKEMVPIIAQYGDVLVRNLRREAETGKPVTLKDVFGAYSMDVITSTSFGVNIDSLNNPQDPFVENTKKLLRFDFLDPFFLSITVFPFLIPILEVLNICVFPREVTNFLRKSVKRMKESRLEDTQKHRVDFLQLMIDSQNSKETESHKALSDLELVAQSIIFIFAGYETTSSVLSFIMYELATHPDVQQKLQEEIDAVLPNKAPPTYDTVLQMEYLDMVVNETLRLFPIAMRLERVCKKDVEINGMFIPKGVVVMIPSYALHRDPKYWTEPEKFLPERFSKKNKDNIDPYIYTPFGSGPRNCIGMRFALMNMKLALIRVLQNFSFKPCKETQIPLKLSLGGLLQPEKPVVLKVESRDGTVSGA

Compound: Cc1ncc(C(=O)Nc2ccc(-c3cccc(NC4CC4)c3)cn2)cn1
- TGI (SNU-16): 67%
- Tmax [1]: ≤ 15 min
- MTD [2]: ≤ 6 mg/kg

Compound: O=C(Nc1ccc(-c2cccc(C3CC3)c2)cn1)c1cncnc1
- TGI (SNU-16): 74%
- Tmax [1]: ≤ 15 min
- MTD [2]: ≤ 6 mg/kg

Compound: Cc1ncc(C(=O)Nc2ccc(-c3ccsc3)cn2)cn1
- half-life [3]: 35.2 min
- TGI (SNU-16): 135%
- fraction unbound [4]: 0.0507
- IC50 (Cytochrome P450 2D6): > 30 µM
- half-life [5]: 7.5 min
- remaining at 1.25 h [6]: 91.7%
- fraction unbound [7]: 0.0507
- remaining at 4 h [8]: 86.9%
- half-life [9]: 27.3 min
- IC50 (Cytochrome P450 2C9): > 30 µM
- Drug recovery [10]: 93.56%
- IC50 (Cytochrome P450 3A4): > 30 µM
- MTD [11]: ≤ 20 mg/kg
- remaining at 24 h [12]: 49%
- IC50 (Cytochrome P450 1A2): > 30 µM
- remaining at 2 h [13]: 92.2%
- IC50 (Cytochrome P450 2C19): > 30 µM
- half-life [14]: 25.9 min
- TGI (A2780): Active
- MTD [2]: ≤ 6 mg/kg
- Activity (Mus musculus): Non-Toxic
- remaining at 8 h [15]: 71.6%

Compound: CC(=O)CC(c1ccccc1)c1c(O)c2ccccc2oc1=O (centres undefined) [WARFARIN]
- Drug recovery [10]: 98.63%

Compound: Cc1ncc(C(=O)Nc2ccc(-c3cccc(OC4CC4)c3)cn2)cn1
- half-life [3]: 20.6 min
- TGI (SNU-16): 100%
- Tmax [1]: ≤ 15 min
- fraction unbound [4]: 0.0061
- IC50 (Cytochrome P450 2D6): > 30 µM
- Tmax [16]: 15 min
- half-life [5]: 144 min
- remaining at 1.25 h [6]: 89.4%
- fraction unbound [7]: 0.0061
- remaining at 4 h [8]: 91.5%
- half-life [9]: 13.7 min
- IC50 (Cytochrome P450 2C9): > 30 µM
- Drug recovery [10]: 79.64%
- IC50 (Cytochrome P450 3A4): > 30 µM
- MTD [11]: ≤ 20 mg/kg
- remaining at 24 h [12]: 89.7%
- IC50 (Cytochrome P450 1A2): > 30 µM
- remaining at 2 h [13]: 81.1%
- IC50 (Cytochrome P450 2C19): > 30 µM
- half-life [14]: 10.9 min
- TGI (A2780): Active
- MTD [2]: ≤ 6 mg/kg
- Activity (Mus musculus): Non-Toxic
- remaining at 8 h [15]: 74.1%

Compound: CC(C)NCC(O)COc1cccc2ccccc12 (centres undefined) [PROPRANOLOL]
- Papp A→B at 2 h (in vitro [17]): 21.2 ×10⁻⁶ cm/s
- Papp B→A at 2 h (in vitro [18]): 21.1 ×10⁻⁶ cm/s
- efflux ratio at 2 h [19]: 0.99

Compound: Cc1ncc(C(=O)Nc2ccc(-c3cccc(C4CC4)c3)cn2)cn1
- TGI (SNU-16): 73%
- Tmax [1]: ≤ 15 min
- MTD [2]: ≤ 6 mg/kg
